# Entries after “also recorded” stand apart in the source; their conditions may differ.
# Key:
# [1] = test system: pancrelipase; assay: Pancrelipase reactivation by colipase; format: biochemical; conditions: for % Lipase Activity with Colipase: colipase 5 μg/mL; for effect of added colipase on the inhibition of pancrelipase (in words): excess colipase added to reaction mixture
# Description: In brief, the above lipase assay procedure was used with the following variation: colipase solution replaced the distilled water so the concentration of colipase in the final reaction mixture was 5 μg/mL.
# [2] = test system: HIV patients; conditions: Kakuda et al. 1998; cited from earlier work
# [3] = molecular target: T1, pancrelipase (Sus scrofa, UniProt P00591); assay: Lipase assay (USP titrimetric): inhibition of pancrelipase by HAART drugs and excipients; format: biochemical
# T1 sequence (P00591 1-450): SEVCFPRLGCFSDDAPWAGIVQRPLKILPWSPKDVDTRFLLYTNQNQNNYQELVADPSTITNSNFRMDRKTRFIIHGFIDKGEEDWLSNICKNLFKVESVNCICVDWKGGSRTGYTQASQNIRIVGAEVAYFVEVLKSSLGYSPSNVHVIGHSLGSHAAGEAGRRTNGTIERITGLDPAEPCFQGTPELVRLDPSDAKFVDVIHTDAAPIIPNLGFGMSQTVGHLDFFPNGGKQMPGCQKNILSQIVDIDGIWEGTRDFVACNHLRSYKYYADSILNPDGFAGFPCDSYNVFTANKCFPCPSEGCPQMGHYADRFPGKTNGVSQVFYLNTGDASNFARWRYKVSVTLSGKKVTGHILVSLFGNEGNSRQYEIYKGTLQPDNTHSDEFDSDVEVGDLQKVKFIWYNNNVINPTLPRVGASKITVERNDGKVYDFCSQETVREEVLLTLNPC
# Description: The enzyme sources consisted of USP Reference Standard Pancrelipase, USP Reference Standard Trypsin, colipase (Sigma Chemical Co.), and enterokinase (ICN Biochemicals). Appropriate concentrations of enzyme reference standard were prepared in cold distilled water, as described in USP reference assay procedures. The Infectious Disease Clinic in Somerville, N.J. provided the HAART medications. Pure drugs could not be obtained so commercial drug preparations were used in the assays.
# One unit (U) of lipase activity is defined as the amount of enzyme that liberates one μequivalent of free fatty acid from triglycerides per minute at pH 9.0 and 37° C. Lipase activity (U/mg) was determined by a lipase specific titrimetric assay described in the United States Pharmacopeia (USP), Volume XXII. In brief, the substrate consists of 10% olive oil in acacia solution, 40-mg/mL sodium taurocholate, 0.075M calcium chloride, 0.05M Tris in 3.0M NaCl buffer solution (pH 7.5) and distilled water. The emulsified substrate is incubated at 37° C. and brought to pH 9.0 with 0.02N NaOH. At time zero, 1.0 mL of enzyme solution was added. A pH stat autotitrator was used to maintain pH 9.0 and the volume of 0.02 N NaOH dispensed per unit time was recorded for five (5) minutes. From the initial slope of this plot, lipase activity was calculated using the following equation: […]
# [4] = test system: pancrelipase; assay: Recovery of pancrelipase activity after inhibition, by addition of excess lipase; format: biochemical
# Description: The above procedure was used to monitor pancrelipase activity with the exception that drug was not preincubated with the substrate. At time zero 1.0 mL of pancrelipase was added to initiate the reaction. At five (5) minutes, 1.0 mL of HAART drug solution was added to the reaction mixture to cause inhibition of lipase activity. At twelve (12) minutes an additional 1.0 mL of pancrelipase was added to the reaction mixture to overcome HAART inhibition. The reaction was monitored for twenty (20) minutes.
Compound,% Lipase Activity No Colipase ([1]; Drug Conc. 0.002 mg/mL) [%],% Lipase Activity with Colipase ([1]; Drug Conc. 0.002 mg/mL) [%],effect of added colipase on the inhibition of pancrelipase (in words) [1],HIV patients experiencing diarrhea [2],inhibition of pancrelipase (in words) [3],"% Pancrelipase Activity ([4]; after addition of drug solution at 5 minutes, before excess lipase) [%]",% Reactivation of Pancrelipase ([4]; after additional 1.0 mL of pancrelipase at 12 minutes) [%],% Lipase Activity No Colipase ([1]; Drug Conc. 10.0 mg/mL) [%],% Lipase Activity with Colipase ([1]; Drug Conc. 10.0 mg/mL) [%]
"CCCCCCCCCCC[C@@H](C[C@@H]1OC(=O)[C@H]1CCCCCC)OC(=O)[C@H](CC(C)C)NC=O [ORLISTAT ®, reference compound]",37,29,no effect,,,,,,
"Cc1c(O)cccc1C(=O)N[C@@H](CSc1ccccc1)[C@H](O)CN1C[C@H]2CCCC[C@H]2C[C@H]1C(=O)NC(C)(C)C [nelfinavir, Nelfinavir]",,,,12-20%,,,,,
D-α-tocopheryl polyethylene glycol 1000 succinate [TPGS],,,Pancrelipase inhibition was reversed; also recorded: restored pancrelipase activity,,significant inhibition; also recorded: significantly inhibited,55,98,21,79

# Source: patent publication US20100021505A1, “Composition and method to prevent or reduce diarrhea and steatorrhea in HIV patients” (priority 2008, published 2010)
